# According to ChEMBL document CHEMBL5316338, “Discovery of Novel PTP1B Inhibitors with Once-Weekly Therapeutic Potential for Type 2 Diabetes: Design, Synthesis, and In Vitro and In Vivo Investigations of BimBH3 Peptide Analogues” (J Med Chem, 2023):
# Numbered stars: 1 amine (or outer) side, 2 acyl side, 3 side chain; on linkers, the order of the positions; unused ones are H or OH. Peptide text beside a SMILES is read from it. * marks the point of attachment. C18 diacid = O=C(O)CCCCCCCCCCCCCCCCC(=O)*; γGlu = O=C(O)[C@H](CCC(=O)[*:2])N[*:1]; C12 diacid = O=C(O)CCCCCCCCCCC(=O)*; Glutaryl = O=C(CCCC(=O)[*:2])[*:1]; HOOC(CH2)6CO = O=C(O)CCCCCCC(=O)*; Heptanoyl = CCCCCCC(=O)*; Pentanoyl = CCCCC(=O)*; AEEA = NCCOCCOCC(=O)O; Butyryl = CCCC(=O)*
# Target: T1, Tyrosine-protein phosphatase non-receptor type 1 (Homo sapiens) (UniProt P18031)
# T1 sequence (whole entry): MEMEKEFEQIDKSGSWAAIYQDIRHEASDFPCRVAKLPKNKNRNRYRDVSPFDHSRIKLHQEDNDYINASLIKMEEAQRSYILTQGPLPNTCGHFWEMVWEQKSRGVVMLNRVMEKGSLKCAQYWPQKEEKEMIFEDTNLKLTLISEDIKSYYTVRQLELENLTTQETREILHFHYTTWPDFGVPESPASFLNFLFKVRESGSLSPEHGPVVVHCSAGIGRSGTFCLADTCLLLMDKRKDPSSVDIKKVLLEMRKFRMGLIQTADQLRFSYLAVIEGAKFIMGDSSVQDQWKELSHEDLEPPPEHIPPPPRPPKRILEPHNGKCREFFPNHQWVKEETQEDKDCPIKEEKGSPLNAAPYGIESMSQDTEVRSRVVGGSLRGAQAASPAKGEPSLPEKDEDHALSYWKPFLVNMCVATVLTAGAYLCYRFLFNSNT
# Experiment: Inhibition of N-terminal His tagged recombinant human PTP1B expressed in Escherichia coli using pNPP as substrate assessed as substrate hydrolysis at 40 umol/L relative to control
# Details: dose 40.0 µmol/L
row,inhibition,Structure (SMILES)
1,< 50%,CC[C@H](C)[C@H](NC(=O)COCCOCCNC(=O)COCCOCCNC(=O)CC[C@H](NC(=O)CCCCCCCCCCCCCCCCC(=O)O)C(=O)O)C(=O)N[C@@H](C)C(=O)N[C@@H](CCC(N)=O)C(=O)N[C@@H](CCC(=O)O)C(=O)N[C@@H](CC(C)C)C(=O)N[C@@H](CCCNC(=N)N)C(=O)N[C@@H](CCCNC(=N)N)C(=O)N[C@H](C(=O)NCC(=O)N[C@@H](CC(=O)O)C(=O)N[C@@H](CCC(=O)O)C(=O)N[C@@H](Cc1ccccc1)C(=O)O)[C@@H](C)CC ({C18 diacid-γGlu-AEEA-AEEA}-IAQELRRIGDEF-OH)
2,< 50%,CCCC(=O)N[C@H](C(=O)N[C@@H](C)C(=O)N[C@@H](CCC(N)=O)C(=O)N[C@@H](CCC(=O)O)C(=O)N[C@@H](CC(C)C)C(=O)N[C@@H](CCCNC(=N)N)C(=O)N[C@@H](CCCNC(=N)N)C(=O)N[C@H](C(=O)NCC(=O)N[C@@H](CC(=O)O)C(=O)N[C@@H](CCC(=O)O)C(=O)N[C@@H](Cc1ccccc1)C(=O)O)[C@@H](C)CC)[C@@H](C)CC (Butyryl-IAQELRRIGDEF-OH)
3,< 50%,CC[C@H](C)[C@H](NC(=O)CCCC(=O)O)C(=O)N[C@@H](C)C(=O)N[C@@H](CCC(N)=O)C(=O)N[C@@H](CCC(=O)O)C(=O)N[C@@H](CC(C)C)C(=O)N[C@@H](CCCNC(=N)N)C(=O)N[C@@H](CCCNC(=N)N)C(=O)N[C@H](C(=O)NCC(=O)N[C@@H](CC(=O)O)C(=O)N[C@@H](CCC(=O)O)C(=O)N[C@@H](Cc1ccccc1)C(=O)O)[C@@H](C)CC (Glutaryl-IAQELRRIGDEF-OH)
4,< 50%,CCCCC(=O)N[C@H](C(=O)N[C@@H](C)C(=O)N[C@@H](CCC(N)=O)C(=O)N[C@@H](CCC(=O)O)C(=O)N[C@@H](CC(C)C)C(=O)N[C@@H](CCCNC(=N)N)C(=O)N[C@@H](CCCNC(=N)N)C(=O)N[C@H](C(=O)NCC(=O)N[C@@H](CC(=O)O)C(=O)N[C@@H](CCC(=O)O)C(=O)N[C@@H](Cc1ccccc1)C(=O)O)[C@@H](C)CC)[C@@H](C)CC (Pentanoyl-IAQELRRIGDEF-OH)
5,< 50%,CCCCCCC(=O)N[C@H](C(=O)N[C@@H](C)C(=O)N[C@@H](CCC(N)=O)C(=O)N[C@@H](CCC(=O)O)C(=O)N[C@@H](CC(C)C)C(=O)N[C@@H](CCCNC(=N)N)C(=O)N[C@@H](CCCNC(=N)N)C(=O)N[C@H](C(=O)NCC(=O)N[C@@H](CC(=O)O)C(=O)N[C@@H](CCC(=O)O)C(=O)N[C@@H](Cc1ccccc1)C(=O)O)[C@@H](C)CC)[C@@H](C)CC (Heptanoyl-IAQELRRIGDEF-OH)
6,< 50%,CC[C@H](C)[C@H](NC(=O)CCCCCCC(=O)O)C(=O)N[C@@H](C)C(=O)N[C@@H](CCC(N)=O)C(=O)N[C@@H](CCC(=O)O)C(=O)N[C@@H](CC(C)C)C(=O)N[C@@H](CCCNC(=N)N)C(=O)N[C@@H](CCCNC(=N)N)C(=O)N[C@H](C(=O)NCC(=O)N[C@@H](CC(=O)O)C(=O)N[C@@H](CCC(=O)O)C(=O)N[C@@H](Cc1ccccc1)C(=O)O)[C@@H](C)CC ({HOOC(CH2)6CO}-IAQELRRIGDEF-OH)
7,< 50%,CC[C@H](C)[C@H](NC(=O)CCCCCCCCC(=O)O)C(=O)N[C@@H](C)C(=O)N[C@@H](CCC(N)=O)C(=O)N[C@@H](CCC(=O)O)C(=O)N[C@@H](CC(C)C)C(=O)N[C@@H](CCCNC(=N)N)C(=O)N[C@@H](CCCNC(=N)N)C(=O)N[C@H](C(=O)NCC(=O)N[C@H](CC(=O)O)C(=O)N[C@@H](CCC(=O)O)C(=O)N[C@@H](Cc1ccccc1)C(=O)O)[C@@H](C)CC
8,< 50%,CC[C@H](C)[C@H](NC(=O)CCCCCCCCCCC(=O)O)C(=O)N[C@@H](C)C(=O)N[C@@H](CCC(N)=O)C(=O)N[C@@H](CCC(=O)O)C(=O)N[C@@H](CC(C)C)C(=O)N[C@@H](CCCNC(=N)N)C(=O)N[C@@H](CCCNC(=N)N)C(=O)N[C@H](C(=O)NCC(=O)N[C@@H](CC(=O)O)C(=O)N[C@@H](CCC(=O)O)C(=O)N[C@@H](Cc1ccccc1)C(=O)O)[C@@H](C)CC ({C12 diacid}-IAQELRRIGDEF-OH)
